Test results taken from publication PMC11342919 (RSC Advances, 2024).

Columns and labels:
M^pro = details: at 100 μM; cited from earlier work
[1] = after 2 h

| SMILES | inhibition of M^pro (M^pro) | starting material consumed by cysteine [1] |
| --- | --- | --- |
| C=C(CC)C(=O)c1ccc(OCC(=O)O)c(Cl)c1Cl [EA, ethacrynic acid] | approximately 20% | – |
| CCCCCCNC(=O)n1cc(F)c(=O)[nH]c1=O [Carmofur] | – | 75% |
